Measurements published in patent US9458141B2, “Low molecular weight thyroid stimulating hormone receptor (TSHR) agonists” (The United States of America, as represented by the …, priority 2008, dated 2016).
Where two headings read alike, the source gives them in different places.

Key:
[1] = target: T1, human TSHR (Homo sapiens, UniProt P16473); assay: Confirmatory cAMP assay, HEK EM 293 cells stably expressing TSHR; assay type: cell-based; conditions: 1 h incubation, 1 mM IBMX
T1 construct: expressed in transfected cells
T1 sequence (P16473 21-764): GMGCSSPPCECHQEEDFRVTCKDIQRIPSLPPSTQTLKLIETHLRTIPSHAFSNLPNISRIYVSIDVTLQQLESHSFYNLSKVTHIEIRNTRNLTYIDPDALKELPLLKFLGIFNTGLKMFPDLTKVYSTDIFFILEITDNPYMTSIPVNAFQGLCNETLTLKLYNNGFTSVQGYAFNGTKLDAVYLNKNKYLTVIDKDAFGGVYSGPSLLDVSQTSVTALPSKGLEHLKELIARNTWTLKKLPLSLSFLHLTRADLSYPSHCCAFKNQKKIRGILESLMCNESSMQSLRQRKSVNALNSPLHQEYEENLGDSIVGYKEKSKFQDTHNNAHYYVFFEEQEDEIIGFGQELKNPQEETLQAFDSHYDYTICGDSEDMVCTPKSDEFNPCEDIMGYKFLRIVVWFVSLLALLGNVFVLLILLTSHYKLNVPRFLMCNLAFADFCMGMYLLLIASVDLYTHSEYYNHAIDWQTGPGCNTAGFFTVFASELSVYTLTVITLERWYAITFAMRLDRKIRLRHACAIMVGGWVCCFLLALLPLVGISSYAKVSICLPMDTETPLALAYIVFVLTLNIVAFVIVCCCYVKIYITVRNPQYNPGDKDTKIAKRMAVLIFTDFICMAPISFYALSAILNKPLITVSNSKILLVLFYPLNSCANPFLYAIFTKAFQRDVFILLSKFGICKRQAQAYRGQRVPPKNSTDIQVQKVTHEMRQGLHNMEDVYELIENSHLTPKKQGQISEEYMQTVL
Description: cDNA for human TSHR was amplified by PCR from hTSHR-pSVL (1) and inserted into the pcDNA3.1(−)/hygromycin vector using restriction sites XhoI and BamHI. cDNA for human LHCGR was amplified by PCR from hLHR-pGS5 (2) and was inserted into the pcDNA3.1(+)/hygromycin vector using restriction sites BamHI and XhoI. The FSHR cDNA in pcDNA3.1 was obtained from the Missouri S&T cDNA Resource Center (www.cDNA.org) and was subcloned into the pcDNA3.1(−)/hygromycin vector. Constructs were confirmed by sequencing (MWG Biotech). HEK-EM 293 cells were transfected with the cDNA of TSHR, LHCGR or FSHR using FuGENE 6 Transfection reagent (Roche Diagnostics) according to the manufacturer's protocol. Two days after transfection cells were passaged and grown in Dulbecco's modified Eagle's Medium (DMEM) supplemented with 10% fetal bovine serum, 100 units/ml penicillin and 10 μg/ml streptomycin (Life Technologies Inc.) and with hygromycin (250 μg/ml) as a selection marker. After 7 to 10 days hygromycin-resistant clones were selected, and after a few days of further growth submitted for a cAMP assay to identify clones that stably express the appropriate receptor. Cell Culture. Cells stably expressing TSHR, LHCGR or FSHR and parental HEK 293 cells were maintained in DMEM medium containing 10% FBS, 100 units/ml Penicillin, 100 μg/ml Streptomycin, at 37° C. in 5% CO2. For the cells lines stably expressing TSHR, LHCGR or FSHR, additional 250 μg/ml Hygromycin was added during the cell culture. The cells were seeded at a density of 3 to 4 million cells in a T175 flask containing 35 ml of media and were allowed to grow for 3 days to reach 80-90% confluence. A flask of HEK 293 cells at this density generally yielded 30 million cells total. Homogeneous Time Resolved Fluorescence (HTRF) cAMP Assay. Compounds were assayed using a HTRF cAMP detection kit (Cisbio, Bedford, Mass.) on both TSHR cell line and parental cell line. Briefly, 750 cells were plated in 2.5 μl/well of complete media (DMEM containing 10% FCS) in 1536 well solid bottom white plates and 20 nl/well compound in DMSO solution or controls was added. Following 30 minute incubation at room temperature, 2.5 μl/well of labeled d2 cAMP and 2.5 μl/well of anti-cAMP antibody (both diluted 1:20 in lysis buffer) were added to each well using a flying reagent dispenser (Aurora Discovery, San Diego). Plates were measured using the Envision plate reader (PerkinElmer, Boston, Mass.) with excitation at 330 nm and emissions of 615 nm and 660 nm. Compound Preparation. […] Data Analysis. […] The EC50 values of compounds were calculated from the concentration-response curves by nonlinear regression analysis using Prism software (GraphPad Software, San Diego, Calif.). Confirmatory cAMP Assay and Test for Selectivity Towards TSHR 50,000 cells/well were plated in complete media (DMEM containing 10% FCS) in 96 well plates. […] Following aspiration of the medium after incubation with compounds, cells were lysed using lysis buffer of the cAMP-Screen Direct™ System (Applied Biosystems, Cat # CSD200). The cAMP content of the cell lysate was determined using the manufacturer's protocol. […] Below is a List of Compounds that were Assayed via the Homogeneous Time Resolved Fluorescence (HTRF) cAMP Assay.

[2] = target: T1, human TSHR; assay: Homogeneous Time Resolved Fluorescence (HTRF) cAMP assay, TSHR cell line; assay type: cell-based; conditions: for AC50: HTRF cAMP, TSHR cell line, 30 minute incubation; for Maximum Activity compared to TSH: 100% activity = response of 30 mU/ml TSH, 0% = DMSO control, in %

Q: `COc1ccc(-c2nc3ccccc3c(=O)n2Cc2ccco2)cc1COc1ccc(NC(C)=O)cc1` [Compound 3/1, N-(4-(5-(3-(Furan-2-ylmethyl)-4-oxo-3,4-dihydroquinazolin-2-yl)-2-methoxybenzyloxy)phenyl)acetamide] was tested. Which EC50 [1] did it give?
A: 0.1 µM

Q: With `COc1ccc(C2Nc3ccccc3C(=O)N2Cc2ccco2)cc1COc1ccc(NC(C)=O)cc1` (stereo not shown) [Compound 3, N-(4-(5-(3-(Furan-2-ylmethyl)-4-oxo-1,2,3,4-tetrahydroquinazolin-2-yl)-2-methoxybenzyloxy)phenyl)acetamide] as the compound, how does the EC50 [1] read?
A: 0.59 µM

Q: For `COc1ccc(C2Nc3ccccc3C(=O)N2Cc2ccccc2)cc1COc1ccc(NC(C)=O)cc1` (stereo not shown) [Compound 3/2, N-(4-(5-(3-Benzyl-4-oxo-1,2,3,4-tetrahydroquinazolin-2-yl)-2-methoxybenzyloxy)phenyl)acetamide], which EC50 [1] is on record?
A: 0.541 µM

Q: For `COc1ccc(C2Nc3cccc(O)c3C(=O)N2Cc2ccccc2)cc1COc1ccc(NC(C)=O)cc1` (stereo not shown) [Compound 3/4, N-(4-(5-(3-Benzyl-5-hydroxy-4-oxo-1,2,3,4-tetrahydroquinazolin-2-yl)-2-methoxybenzyloxy)phenyl)acetamide], which EC50 [1] is on record?
A: 0.025 µM

Q: Which AC50 [2] does the source give for `COc1cc(C2Nc3ccccc3C(=O)N2Cc2ccccc2)ccc1OCc1ccc(NC(C)=O)cc1` (stereo not shown) [Structure 252] here?
A: inactive

Q: For `COc1ccc(C2Nc3ccccc3C(=O)N2Cc2ccccc2)cc1CSc1ccc(NC(C)=O)cc1` (stereo not shown) [Compound 3/5, N-(4-(5-(3-Benzyl-4-oxo-1,2,3,4-tetrahydroquinazolin-2-yl)-2-methoxybenzylthio)phenyl)acetamide], which EC50 [1] is on record?
A: 0.038 µM

Q: Which results are given for `COc1ccc(C2Nc3ccc(NC(C)=O)cc3C(=O)N2Cc2ccccc2)cc1COc1ccc(NC(C)=O)cc1` (stereo not shown) [Structure 32]?
A: Maximum Activity compared to TSH [2]: 137.62; AC50 ([2]; read-out: AC50): 15.8 µM

Q: With `COc1ccc(C2Nc3ccccc3C(=O)N2Cc2ccco2)cc1COc1ccc(NC(C)=O)cc1` (stereo not shown) [Structure 14] as the compound, how does the “Maximum Activity compared to TSH” value [2] read?
A: 104.66

Q: What about the AC50 ([2]; read-out: AC50) of the same compound?
A: 11.2 µM

Q: How did the “Maximum Activity compared to TSH” value [2] turn out when `COc1ccc(C2Nc3ccccc3C(=O)N2Cc2ccco2)cc1COc1ccc(NC(C)=O)cc1` (stereo not shown) [Structure 94] was run?
A: 160.25

Q: What about the AC50 ([2]; read-out: AC50) of the same compound?
A: 25.1 µM

Q: `COc1ccc(C(=O)N(Cc2ccccc2)Cc2cccs2)c(O)c1` [Structure 93] was tested. Which “Maximum Activity compared to TSH” value [2] did it give?
A: 111.66

Q: And the AC50 ([2]; read-out: AC50)?
A: 28.2 µM

Q: What does the source list for `COc1ccc(C2Nc3ccccc3C(=O)N2Cc2cccc3ccccc23)cc1COc1ccc(NC(C)=O)cc1` (stereo not shown) [Structure 86]?
A: Maximum Activity compared to TSH [2]: 51.11; AC50 ([2]; read-out: AC50): 6.31 µM

Q: Which “Maximum Activity compared to TSH” value [2] does the source give for `CCC(=O)Nc1ccc(OCc2cc(C3Nc4ccccc4C(=O)N3Cc3ccccc3)ccc2OC)cc1` (stereo not shown) [Structure 275] here?
A: 23.50

Q: What about the AC50 ([2]; read-out: AC50) of the same compound?
A: 7.94 µM

Q: How did the AC50 [2] turn out when `O=C(c1ccccc1O)N(Cc1cccs1)Cc1cccs1` [Structure 277] was run?
A: inactive

Q: How did the AC50 [2] turn out when `COc1ccc(C2Nc3ccccc3C(=O)N2Cc2ccco2)cc1COc1ccccc1` (stereo not shown) [Structure 207] was run?
A: inactive

Q: Which results are given for `COc1ccc(C2Nc3cccc(O)c3C(=O)N2Cc2ccccc2)cc1COc1ccc(NC(C)=O)cc1` (stereo not shown) [Structure 61]?
A: Maximum Activity compared to TSH [2]: 302.11; AC50 ([2]; read-out: AC50): 7.94 µM

Q: `CC(=O)Nc1cccc(OCc2cccc(C3Nc4ccccc4C(=O)N3Cc3ccco3)c2)c1` (stereo not shown) [Structure 149] was tested. Which AC50 [2] did it give?
A: inactive

Q: With `COc1ccc(C2Nc3ccccc3CN2Cc2ccco2)cc1COc1cccc(NC(C)=O)c1` (stereo not shown) [Structure 150] as the compound, how does the AC50 [2] read?
A: inactive

Q: For `COc1ccc(C(=O)N(Cc2ccccc2)Cc2ccco2)c(O)c1` [Structure 118], which “Maximum Activity compared to TSH” value [2] is on record?
A: 96.91

Q: And the AC50 ([2]; read-out: AC50)?
A: 28.2 µM

Q: Which results are given for `COc1ccc(C(=O)N(Cc2ccccc2)Cc2ccco2)c(O)c1` [Structure 102]?
A: AC50 ([2]; read-out: AC50): 15.8 µM; Emax ([2]; read-out: Maximum Activity compared to TSH, 100% activity = response of 30 mU/ml TSH, 0% = DMSO control): 88.7%
